Results on two compounds are retold here after US7964584B2, “Method of treating or preventing osteoporosis comprising administering to a patient in need thereof an effective amount of pharmaceutical composition comprising benzamidine derivatives or their salts, and alendronic acid or its salt” (Dong Wha Pharmaceutical Co., Ltd., priority 2008, dated 2011).

This assay deals with osteoclast differentiation (co-culture of bone marrow cells and osteoblasts). The assay can be described thus: Osteoclast differentiation via co-culture of bone marrow cells and osteoblasts, count of TRAP(+) MNCs. It counts as cell-based, mice. To be noted: individual treatment, 7 days culture; for relative number of TRAP(+) MNCs (mature osteoclasts with 6 or more nuclei), control group = 100%: n=4. How it is done: The osteoclast differentiation was induced by co-culture system between bone marrow cells and […] inhibitory effect of the drug on osteoclast differentiation was evaluated by treatment of single or combination formulation. […] Cells were removed from the bone marrow cells, followed by centrifugation. After the bone marrow cells were suspended in α-MEM medium supplemented with 10% FBS, and the numbers of the eukaryotic cells in the harvested bone marrow cells were counted and then immediately used for a co-culture system. The mouse calvaria were aseptically isolated from 1 2 day-old neonatal ICR mice, and the […], primary osteoblasts were isolated by sequential treatment with an enzyme solution of 0.2% collagenase. The isolated […] centrifuged, resuspended with α-MEM containing 10% FBS and cultured until confluent. Then, these cells were diluted to a desired cell number, and used for the experiment. The bone marrow cells (1×10^5 cells/well) and osteoblasts (3,000 cells/well) prepared in the above were plated in a 96-well plate using α-MEM medium supplemented with 10% FBS. At this time, differentiation factors, 1α,25-dihydroxyvitamin D3 (10^-8 M, hereinbelow, referred to as vitamin D3) and dexamethasone (10^-8 M), were co-added to the osteoclastic medium. The medium was replaced with fresh media containing the differentiation factors every 2 to 3 days. After 7 days, when multinucleated osteoclasts were observed, the medium was removed from the wells, and then the cells were fixed with PBS containing 10% formalin. An index of osteoclast formation was determined by counting number of Tartrate-Resistant Acid Phosphatase-positive multinucleated osteoclasts (herein below, referred to as TRAP(+) MNCs). The TRAP staining solution was contained naphtol AS-MX phosphate(pH5.0)as a substrate, Fast Red violet LB as a coloring agent and 50 mM tartaric acid and stored at a refrigerator until use. The number of TRAP(+) MNCs containing more than 6-7 or more nuclei were counted under a microscope. […] All experiments were performed using the osteoclastic media containing vitamin D3 and dexamethasone. […] Sodium alendronate hydrate was dissolved in purified water at a concentration of 0.2 mM, and then diluted 1,000 fold with the osteoclastic media to a final concentration of 0.2 μM. In this connection, a control group was maintained in 0.1% DMSO. Each experiment was performed by individual or combination treatment, as follows. […] The number of TRAP(+) MNCs with 6 or more nuclei were counted under a microscope. The results were expressed as a percentage of the relative number of mature osteoclast observed in each experimental group, when the number of mature osteoclast in the control group (solvent only) was regarded as 100%. […]

Consider `CS(=O)(=O)O.CS(=O)(=O)O.Cc1nc(-c2ccc(OCCCCCOc3ccc(C(=N)NO)cc3)cc2)c(C(C)C)s1` [N-hydroxy-4-{5-[4-(5-isopropyl-2-methyl-1,3-thiazol-4-yl)phenoxy]pentoxy}benzamidine dimethanesulfonate], for which the “relative number of TRAP(+) MNCs (mature osteoclasts with 6 or more nuclei), control group = 100%” value (0.1 μM) was “significant reduction”. For the same compound, the “relative number of osteoclast, control group = 100%” value is listed as 52.4% (0.3 μM) and 34.5% (0.5 μM).

With `NCCCC(O)(P(=O)(O)O)P(=O)(O)O` [sodium alendronate, reference compound], the “relative number of TRAP(+) MNCs (mature osteoclasts with 6 or more nuclei), control group = 100%” value (0.2 μM) is 80.6% and significantly reduced.
